Data as given in US20100255580A1, “Differentiation of Human Embryonic Stem Cells” (LIFESCCAN, INC., priority 2007, published 2010).

How the values were obtained:
[1] = test system: human embryonic stem cell line H7; experiment: FACS analysis of protein expression following activin A treatment, H7; format: cell-based; conditions: AA 100 ng/ml
Description: (§1) The level of expression of definitive endoderm markers was examined by PCR (FIG. 1), FACS (results summarized in Table II), and immunohistochemistry (FIG. 2).
(§2) CXCR4 positive cells were also highly positive for C-kit, EPCAM, CD99, and negative for CD9. The expression pattern for these markers was consistent among all three hES cell lines examined (Table IIB for H7 and Table IIC for H1). […] In parallel, almost 100% of the differentiated cells were […] (FIG. 2).
(§3) Adhered cells were removed from culture plates by five-minute incubation with TrypLE™ Express solution (Invitrogen, CA). Released cells were resuspended in human embryonic stem cell culture medium and recovered by centrifugation, followed by washing and resuspending the cells in a staining buffer consisting of 2% BSA, 0.05% sodium azide in PBS (Sigma, MO). As appropriate, the cells were Fc-receptor blocked for 15 minutes using a 0.1% γ-globulin (Sigma) solution. […] Controls included appropriate isotype matched antibodies, unstained cells, and cells stained only with secondary conjugated antibody. All incubations with antibodies were performed for 30 mins at 4° C. after which the cells were washed with the staining buffer. Samples that were stained with unconjugated primary antibodies were incubated for an additional 30 mins at 4° C. with secondary conjugated PE or -APC labeled antibodies. See Table I for a list of secondary antibodies used. Washed cells were pelleted and resuspended in the staining buffer, and the cell surface molecules were identified using a FACS Array (BD Biosciences) instrument, collecting at least 10,000 events.

[2] = test system: human embryonic stem cell line H1; experiment: FACS analysis of protein expression following activin A treatment, H1; format: cell-based; conditions: 5-day AA treatment
Description: as §1, §2, §3

[3] = test system: human embryonic stem cell line H9; experiment: Immunocytochemistry of endoderm markers, H9; format: cell-based; conditions: activin A for five days
Description: as §1
Cells were harvested at the time points indicated in FIG. 3 and assayed by PCR for the expression of genes shown (FIGS. 3, 4 and 5).

H9P44 cells = experiment: RT-PCR of definitive endoderm markers, growth factor combinations in low serum on MEFs (Example 22); format: cell-based, human; conditions: H9P44 on MEF; Day 3; normalized to Group 1 (control)
Protocol: Real-time PCR amplification and quantitative analysis.
Final data were expressed relative to a calibrator sample.
H9P44 cells were plated onto 6 well plates previously coated with mitomycin treated mouse embryonic fibroblasts (MEF). Cells were grown until 70 to 80% confluency in ES cell medium consisting of DMEM/F12 (Invitrogen/GIBCO) supplemented with 20% knockout serum replacement, 100 nM MEM nonessential amino acids, 0.5 mM beta-mercaptoethanol, 2 mM L-glutamine (all from Invitrogen/GIBCO) and 8 ng/ml human basic fibroblast growth factor (bFGF) (R&D Systems).
Growth factors were added to increasing concentration of FBS in a stepwise manner as indicated in the following regimen: • Day 0: 0% FBS in DMEM/F12 • Day 1: 0.5% FBS in DMEM/F12 • Day 2: 2% FBS in DMEM/F12. • Day 3: Cells were harvested for FACS analysis and RT-PCR.
All growth factors were purchased from R&D Systems, MN. A detailed description and concentration of growth factors for each treatment group is shown below.
For RT-PCR analysis, cells were analyzed for expression of selected panel of definitive endoderm markers.

SA002 ES line = experiment: Real-time PCR and FACS of DE markers, SA002 on […]; format: cell-based, human; conditions: SA002 P38; 20 ng/ml Wnt-3a with 100 ng/ml activin A
Description: Expression of CXCR4 is depicted in FIG. 45: a) AA treatment b) AA+Wnt-3a c) AA+GSK-3B inhibitor.

H9 embryonic stem cells = experiment: Immunofluorescence staining of DE markers +/- Wnt-3a (Example 27); format: cell-based, human; conditions: 20 ng/ml Wnt-3a; Day 5 DE cultures
Description: Day 5 DE cultures of H9 cells were stained according to Example 10 for SOX-17, HNF-3B, GATA-4, N-cadherin, and E-cadherin. All nuclei were counter stained with DAPI.

Activin A: a member of the TGFβ superfamily; R&D Systems; Group 2 = Activin A (100 ng/ml)
CXCR4+ ([1]; 1-day): 6% | CXCR4+ C-Kit+ ([1]; 1-day): 2.97% | CXCR4+ CD9+ ([1]; 1-day): 8.13% | CXCR4+ EPCAM+ ([1]; 1-day): 14.58% | CXCR4+ ([1]; 3-day): 38% | CXCR4+ C-Kit+ ([1]; 3-day): 31.56% | CXCR4+ CD9+ ([1]; 3-day): 24.11% | CXCR4+ EPCAM+ ([1]; 3-day): 36.67% | CXCR4+ ([1]; 5-day): 65.5% | CXCR4+ C-Kit+ ([1]; 5-day): 55.21% | CXCR4+ CD9+ ([1]; 5-day): 2.1% | CXCR4+ EPCAM+ ([1]; 5-day): 54.5% | CXCR4+ [2]: 92.78% | CXCR4+/C-kit+ [2]: 92.90% | CXCR4+/CD9+ [2]: 7.03% | CXCR4+/CD99+ [2]: 88.78% | CXCR4+/EPCAM [2]: 87.99% | cells positive for Sox17 and HNF-3beta (immunocytochemistry) [3]: 30-40% | differentiated cells still Oct4 positive (immunocytochemistry) [3]: ~100% | CXCR4 relative expression (H9P44 cells): 19.5 | Goosecoid relative expression (H9P44 cells): 2.8 | HNF-3B relative expression (H9P44 cells): 0.64 | Oct-4 relative expression (H9P44 cells): 1.1 | SOX-2 relative expression (H9P44 cells): 0.91 | Sox17 relative expression (H9P44 cells): 45

Wnt-3a
expression of DE markers (SA002 ES line): robust expression | expression of N-cadherin (H9 embryonic stem cells): enhanced expression | expression of e-cadherin (H9 embryonic stem cells): significant loss | nuclei stained positive for SOX-17, HNF-3beta. and GATA-4 (H9 embryonic stem cells): significantly larger number
